Measurements as given in ChEMBL document CHEMBL1201862, “PubChem BioAssay data set” (2004).
Where a name gives a salt, the structure may show the parent alone. Calls of active or inactive are those of the source.

Key:
Albumin = Albumin (Bos taurus, UniProt P02769); assay: Counterscreen for inhibitors of T-cell receptor (TCR)-CD3 interaction: Fluorescence-based biochemical high throughput dose response assay to identify inhibitors of T-cell receptor (TCR)-CD3 interaction using a TAMRA-labeled BSA probe.; format: functional
H9c2 = assay: cells; format: functional, cell-based; settings: Rattus norvegicus, H9c2, Myocardium;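 also: confirmatory concentration-response retest of ultra-high-throughput screening hits for modulation of myocardial damage; cell death induced by hydrogen peroxide oxidative stress; compound pretreatment for 60 min then peroxide exposure for 2 h; potency is for protecting the cells against peroxide damage rather than for killing them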
Beta-galactosidase = Beta-galactosidase (Escherichia coli, UniProt Q8VNN2); assay: Dose response counterscreen for EBI2 assay utilizing the enzyme, b-galactosidase.; format: functional
[1] = THP-1 cell cytotoxicity, dose response, cytotoxicity control for Vif-APOBEC3G degradation inhibitor project, THP-1 cells (AID 1117359); format: functional; settings: Human immunodeficiency virus 1, THP-1
[2] = target: Disintegrin and metalloproteinase domain-containing protein 17 (Homo sapiens, UniProt P78536); assay: ADAM17 protease inhibitors, dose response, counter-screen for ADAM10 exosite inhibitor project, biochemical, quenched FRET substrate (AID 743253)
[3] = ADAM10 inhibitors, peptide cleavage, dose response, biochemical, QFRET (AID 743254);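 also: ADAM10 enzyme with the DM2 quenched FRET peptide as substrate; EDANS fluorescence gain as the protease cuts the substrate; inhibitor potency against ADAM10 proteolytic activity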
fMet-Leu-Phe receptor = target: T1, fMet-Leu-Phe receptor (Homo sapiens, UniProt P21462); assay: FPR ligands, dose response (AID 519); format: functional
T1 sequence (P21462 whole entry): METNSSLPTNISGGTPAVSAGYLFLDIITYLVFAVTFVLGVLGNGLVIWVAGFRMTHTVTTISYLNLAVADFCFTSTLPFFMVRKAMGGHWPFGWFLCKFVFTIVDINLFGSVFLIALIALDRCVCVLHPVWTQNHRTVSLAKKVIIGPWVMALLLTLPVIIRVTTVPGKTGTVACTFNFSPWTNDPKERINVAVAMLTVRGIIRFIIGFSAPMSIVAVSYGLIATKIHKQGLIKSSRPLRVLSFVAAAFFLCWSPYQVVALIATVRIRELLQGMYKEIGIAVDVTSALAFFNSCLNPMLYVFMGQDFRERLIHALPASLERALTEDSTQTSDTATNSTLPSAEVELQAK

Cytochrome P450 2D6 = Cytochrome P450 2D6 (Homo sapiens, UniProt P10635);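 also: CYP2D6 member of a cytochrome P450 panel assay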
[4] = THP-1 cell cytotoxicity, dose response, cytotoxicity control for non-replicating M. tuberculosis project (AID 489025); format: functional
[5] = HEp-2 cell cytotoxicity, dose response, cytotoxicity control for RSV inhibitor project, HTS (AID 2410); format: functional; settings: human respiratory syncytial virus
[6] = target: T2, Methionyl-tRNA synthetase, putative (Trypanosoma brucei brucei, UniProt Q38C91); format: functional, Trypanosoma brucei brucei strain 927/4 GUTat10.1;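 also: Read-out by fluorescence polarization, run as a confirmatory high-throughput counterscreen; potency of MetRS inhibitors measured by reduced AMP formation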
T2 sequence (Q38C91 whole entry): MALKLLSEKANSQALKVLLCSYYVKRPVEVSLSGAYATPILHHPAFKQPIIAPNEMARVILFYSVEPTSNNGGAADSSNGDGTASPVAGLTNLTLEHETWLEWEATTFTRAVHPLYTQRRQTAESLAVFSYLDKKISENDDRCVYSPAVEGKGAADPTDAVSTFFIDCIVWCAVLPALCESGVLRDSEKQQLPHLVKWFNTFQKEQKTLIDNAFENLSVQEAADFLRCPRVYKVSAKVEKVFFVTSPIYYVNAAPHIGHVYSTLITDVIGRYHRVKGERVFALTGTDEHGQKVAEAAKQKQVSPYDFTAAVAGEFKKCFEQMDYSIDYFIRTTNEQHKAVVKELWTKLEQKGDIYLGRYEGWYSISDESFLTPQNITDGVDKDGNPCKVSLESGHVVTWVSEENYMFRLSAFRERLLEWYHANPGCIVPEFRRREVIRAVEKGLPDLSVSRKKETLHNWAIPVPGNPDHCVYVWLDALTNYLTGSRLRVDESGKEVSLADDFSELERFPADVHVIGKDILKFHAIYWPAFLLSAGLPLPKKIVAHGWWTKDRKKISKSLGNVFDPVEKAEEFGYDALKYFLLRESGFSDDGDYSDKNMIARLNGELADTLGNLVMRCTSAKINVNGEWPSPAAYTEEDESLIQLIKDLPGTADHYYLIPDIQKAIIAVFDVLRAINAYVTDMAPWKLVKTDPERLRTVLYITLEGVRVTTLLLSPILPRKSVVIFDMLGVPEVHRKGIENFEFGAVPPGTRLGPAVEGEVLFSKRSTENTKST

[7] = Counterscreen for inhibitors of Trypanosoma brucei methionyl tRNA synthetase (MetRS): Luminescence-based cell-based high throughput dose response assay to identify compounds that are cytotoxic to Jurkat human T lymphocyte cells.; format: functional
[8] = growth suppression of PTEN-null colon cells, dose response, cell-based, HCT116 PTEN knockout (AID 1047); format: functional;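 also: HCT116 colon tumor cells with PTEN knocked out; cells exposed to compound for 60 hours before readout; potency for loss of cell viability measured by luminescence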
[9] = growth suppression of beta-catenin-knockout colon cells, dose response, cell-based, HCT116, human colon tumor (AID 1045); format: functional;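 also: HCT116 colon tumor cells with beta catenin knocked out; cells exposed to compound for 60 hours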
[10] = target: T3, Trace amine-associated receptor 1 (Homo sapiens, UniProt Q96RJ0); assay: Fluorescence-based cell-based high throughput dose response assay to identify agonists of the human trace amine associated receptor 1 (TAAR1).; format: functional
T3 sequence (Q96RJ0 whole entry): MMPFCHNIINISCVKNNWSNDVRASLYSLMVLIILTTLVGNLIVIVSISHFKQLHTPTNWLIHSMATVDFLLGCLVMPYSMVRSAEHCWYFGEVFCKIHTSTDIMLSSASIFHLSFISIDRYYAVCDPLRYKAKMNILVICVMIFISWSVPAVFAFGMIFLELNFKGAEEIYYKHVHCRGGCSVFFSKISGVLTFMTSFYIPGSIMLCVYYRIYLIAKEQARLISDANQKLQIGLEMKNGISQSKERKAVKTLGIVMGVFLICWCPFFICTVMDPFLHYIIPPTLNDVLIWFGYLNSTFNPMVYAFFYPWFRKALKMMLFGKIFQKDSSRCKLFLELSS

cells [11] = format: functional, cell-based
cells [12] = format: functional, cell-based; remark: listed apart in the source
HEK293 = assay: inhibitors of LMP1-driven NF-kB reporter, dose response, cell-based, HEK293, luciferase, cherry-pick (AID 588343); format: functional; settings: Homo sapiens
[13] = target: T3, Trace amine-associated receptor 1; assay: Counterscreen for agonists of the human trace amine associated receptor 1 (hTAAR1): Fluorescence-based cell-based high throughput dose response assay to identify hTAAR1 agonist that also desensitize TAAR1 receptor response.; format: functional
Large T antigen = Large T antigen (Simian virus 40, UniProt P03070); format: functional, Betapolyomavirus macacae;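 also: Confirmatory-stage PubChem screen for compounds that inhibit SV40 T antigen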
Aminopeptidase N = target: T4, Aminopeptidase N (Plasmodium falciparum FcB1/Columbia, UniProt O96935); assay: P. falciparum M1AAP inhibitors, biochemical, fluorogenic H-Leu-NHMec substrate, 1536-well (AID 1445); parameters: species or system Plasmodium falciparum 3D7, 3D7
T4 sequence (O96935 whole entry): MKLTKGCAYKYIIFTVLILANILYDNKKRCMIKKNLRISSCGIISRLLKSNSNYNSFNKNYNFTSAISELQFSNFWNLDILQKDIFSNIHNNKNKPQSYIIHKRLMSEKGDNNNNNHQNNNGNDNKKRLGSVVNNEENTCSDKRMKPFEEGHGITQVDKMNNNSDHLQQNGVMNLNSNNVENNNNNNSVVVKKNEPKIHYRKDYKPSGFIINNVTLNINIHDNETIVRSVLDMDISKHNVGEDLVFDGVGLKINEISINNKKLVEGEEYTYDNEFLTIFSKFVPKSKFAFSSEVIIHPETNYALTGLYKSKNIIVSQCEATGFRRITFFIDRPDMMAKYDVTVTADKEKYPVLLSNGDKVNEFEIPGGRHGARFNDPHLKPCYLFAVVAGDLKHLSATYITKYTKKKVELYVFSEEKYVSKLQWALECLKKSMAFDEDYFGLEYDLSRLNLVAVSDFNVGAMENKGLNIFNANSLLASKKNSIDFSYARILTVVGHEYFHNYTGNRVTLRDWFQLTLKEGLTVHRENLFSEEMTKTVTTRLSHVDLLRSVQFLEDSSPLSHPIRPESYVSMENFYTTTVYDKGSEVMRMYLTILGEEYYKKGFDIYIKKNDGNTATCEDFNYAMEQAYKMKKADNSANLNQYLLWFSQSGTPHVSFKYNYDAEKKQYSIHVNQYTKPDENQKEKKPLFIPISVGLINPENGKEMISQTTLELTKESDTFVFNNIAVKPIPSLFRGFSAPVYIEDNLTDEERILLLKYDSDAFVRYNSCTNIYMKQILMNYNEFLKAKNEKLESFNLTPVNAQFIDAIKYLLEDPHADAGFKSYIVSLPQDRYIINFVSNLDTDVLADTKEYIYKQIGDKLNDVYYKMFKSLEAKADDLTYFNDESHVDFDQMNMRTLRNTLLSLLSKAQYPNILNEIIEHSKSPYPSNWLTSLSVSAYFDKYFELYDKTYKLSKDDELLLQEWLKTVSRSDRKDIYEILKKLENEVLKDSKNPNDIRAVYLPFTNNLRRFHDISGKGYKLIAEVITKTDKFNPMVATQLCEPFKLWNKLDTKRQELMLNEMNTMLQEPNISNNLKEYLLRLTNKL

[14] = P. falciparum Dd2 growth inhibitors, dose response, SYBR Green, cherry-picked samples (AID 1159567); format: functional, cell-based
[15] = tested on: Streptococcus sp. 'group A'; assay: growth inhibition of control SK(-) GAS strain, dose response, counter-screen for streptokinase expression inhibitor project, luminescence, kanamycin, BacTiterGlo, confirmation (AID 1900); format: functional, organism-based
Nonstructural protein 1 = Nonstructural protein 1 (Influenza A virus, UniProt Q194T2); format: functional, Influenza A virus (A/California/07/2009(H1N1))
Streptococcus = assay: Group A Streptococcus viability loss, dose response, counter-screen for streptokinase expression inhibitor project, luminescence, BacTiterGlo (AID 1915); format: functional, organism-based;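 also: potency for reduction of bacterial viability or growth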
[16] = A375 melanoma cell viability loss, dose response, counter-screen for MITF inhibitor project, CellTiter-Glo luminescence, dry powder, set 4 (AID 624364); format: functional, cell-based; settings: A-375;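 also: A375 melanoma cells are MITF independent so this is a counter screen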

Sequence of Albumin (P02769 whole entry): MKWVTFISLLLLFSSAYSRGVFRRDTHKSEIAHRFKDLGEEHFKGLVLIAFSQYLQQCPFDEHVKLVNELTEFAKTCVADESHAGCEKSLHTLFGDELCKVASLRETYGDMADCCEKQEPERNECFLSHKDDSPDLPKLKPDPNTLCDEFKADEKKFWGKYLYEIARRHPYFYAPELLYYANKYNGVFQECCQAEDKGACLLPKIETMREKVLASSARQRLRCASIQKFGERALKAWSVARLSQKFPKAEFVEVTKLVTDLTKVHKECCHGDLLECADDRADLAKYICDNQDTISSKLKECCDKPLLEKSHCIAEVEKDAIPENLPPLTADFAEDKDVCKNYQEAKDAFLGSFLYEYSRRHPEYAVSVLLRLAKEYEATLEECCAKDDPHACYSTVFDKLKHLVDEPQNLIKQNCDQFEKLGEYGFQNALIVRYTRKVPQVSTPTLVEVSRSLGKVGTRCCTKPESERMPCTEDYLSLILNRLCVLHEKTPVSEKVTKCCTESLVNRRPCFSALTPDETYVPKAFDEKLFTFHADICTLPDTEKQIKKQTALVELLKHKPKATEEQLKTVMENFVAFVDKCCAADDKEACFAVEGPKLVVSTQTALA
Sequence of Beta-galactosidase (Q8VNN2 whole entry): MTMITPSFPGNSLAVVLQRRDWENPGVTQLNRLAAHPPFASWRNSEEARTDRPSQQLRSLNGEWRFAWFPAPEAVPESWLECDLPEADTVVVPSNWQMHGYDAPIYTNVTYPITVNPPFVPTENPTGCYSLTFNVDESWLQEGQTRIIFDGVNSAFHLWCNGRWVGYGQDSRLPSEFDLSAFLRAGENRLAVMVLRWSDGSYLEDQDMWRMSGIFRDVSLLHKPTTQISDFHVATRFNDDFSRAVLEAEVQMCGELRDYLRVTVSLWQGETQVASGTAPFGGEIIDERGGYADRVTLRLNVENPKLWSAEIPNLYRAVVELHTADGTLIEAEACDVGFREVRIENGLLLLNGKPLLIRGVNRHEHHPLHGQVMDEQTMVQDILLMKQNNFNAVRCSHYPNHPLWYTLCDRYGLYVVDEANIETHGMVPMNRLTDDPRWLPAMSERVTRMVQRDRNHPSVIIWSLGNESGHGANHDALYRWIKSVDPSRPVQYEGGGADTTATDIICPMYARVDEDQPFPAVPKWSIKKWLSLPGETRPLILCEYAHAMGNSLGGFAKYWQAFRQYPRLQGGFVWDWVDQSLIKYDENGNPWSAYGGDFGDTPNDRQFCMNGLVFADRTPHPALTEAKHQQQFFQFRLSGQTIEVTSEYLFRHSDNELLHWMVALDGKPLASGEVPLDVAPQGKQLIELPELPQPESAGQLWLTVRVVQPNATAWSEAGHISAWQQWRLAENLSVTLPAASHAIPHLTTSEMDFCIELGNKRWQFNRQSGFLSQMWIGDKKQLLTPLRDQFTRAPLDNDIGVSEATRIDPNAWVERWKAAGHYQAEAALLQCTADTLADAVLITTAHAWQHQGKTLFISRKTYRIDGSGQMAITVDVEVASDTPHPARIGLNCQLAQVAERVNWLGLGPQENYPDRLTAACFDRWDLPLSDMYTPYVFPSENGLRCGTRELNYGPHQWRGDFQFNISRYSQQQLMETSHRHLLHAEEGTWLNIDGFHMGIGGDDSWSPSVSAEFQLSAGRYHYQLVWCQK
Sequence of Disintegrin and metalloproteinase domain-containing protein 17 (P78536 whole entry, the tested form may be a part): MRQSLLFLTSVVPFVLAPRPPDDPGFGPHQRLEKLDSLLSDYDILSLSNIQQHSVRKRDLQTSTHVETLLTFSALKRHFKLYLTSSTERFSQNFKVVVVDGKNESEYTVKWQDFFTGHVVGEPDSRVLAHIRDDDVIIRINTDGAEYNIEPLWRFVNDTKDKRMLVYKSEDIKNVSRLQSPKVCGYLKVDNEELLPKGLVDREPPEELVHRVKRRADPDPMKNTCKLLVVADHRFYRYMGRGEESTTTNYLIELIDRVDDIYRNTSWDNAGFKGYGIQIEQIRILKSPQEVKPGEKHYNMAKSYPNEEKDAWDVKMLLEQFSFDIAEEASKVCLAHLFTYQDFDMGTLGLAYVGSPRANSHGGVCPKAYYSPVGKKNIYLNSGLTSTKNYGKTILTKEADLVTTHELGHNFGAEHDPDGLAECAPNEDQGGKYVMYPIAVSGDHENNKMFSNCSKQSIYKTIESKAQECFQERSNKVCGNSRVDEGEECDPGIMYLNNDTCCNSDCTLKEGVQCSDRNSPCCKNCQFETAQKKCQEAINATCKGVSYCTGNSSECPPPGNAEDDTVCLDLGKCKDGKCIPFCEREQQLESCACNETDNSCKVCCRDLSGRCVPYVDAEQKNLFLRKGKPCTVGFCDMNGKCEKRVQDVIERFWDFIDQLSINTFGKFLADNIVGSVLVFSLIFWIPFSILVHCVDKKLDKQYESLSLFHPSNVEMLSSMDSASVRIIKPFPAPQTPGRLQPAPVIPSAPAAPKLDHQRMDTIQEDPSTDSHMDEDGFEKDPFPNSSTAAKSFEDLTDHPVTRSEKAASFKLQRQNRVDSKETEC
Sequence of Large T antigen (P03070 whole entry): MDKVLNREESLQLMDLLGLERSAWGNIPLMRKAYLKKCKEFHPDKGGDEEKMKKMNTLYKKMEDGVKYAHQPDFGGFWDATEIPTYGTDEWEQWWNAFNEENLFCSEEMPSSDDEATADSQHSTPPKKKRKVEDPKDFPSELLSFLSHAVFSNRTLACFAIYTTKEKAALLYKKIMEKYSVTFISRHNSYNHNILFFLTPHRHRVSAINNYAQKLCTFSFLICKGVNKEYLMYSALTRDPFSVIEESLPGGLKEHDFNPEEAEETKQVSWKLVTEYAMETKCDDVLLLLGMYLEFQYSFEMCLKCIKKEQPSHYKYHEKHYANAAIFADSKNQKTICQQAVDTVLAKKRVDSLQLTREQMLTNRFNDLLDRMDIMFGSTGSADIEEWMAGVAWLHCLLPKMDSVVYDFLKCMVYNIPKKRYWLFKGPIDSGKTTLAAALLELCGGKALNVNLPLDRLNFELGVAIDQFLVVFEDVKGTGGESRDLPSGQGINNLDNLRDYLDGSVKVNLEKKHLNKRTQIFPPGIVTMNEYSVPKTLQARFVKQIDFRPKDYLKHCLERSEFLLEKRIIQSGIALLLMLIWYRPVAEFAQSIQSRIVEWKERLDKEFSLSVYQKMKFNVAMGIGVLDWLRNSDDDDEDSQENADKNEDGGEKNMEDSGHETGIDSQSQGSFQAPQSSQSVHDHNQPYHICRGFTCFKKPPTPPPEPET
Sequence of Nonstructural protein 1 (Q194T2 whole entry): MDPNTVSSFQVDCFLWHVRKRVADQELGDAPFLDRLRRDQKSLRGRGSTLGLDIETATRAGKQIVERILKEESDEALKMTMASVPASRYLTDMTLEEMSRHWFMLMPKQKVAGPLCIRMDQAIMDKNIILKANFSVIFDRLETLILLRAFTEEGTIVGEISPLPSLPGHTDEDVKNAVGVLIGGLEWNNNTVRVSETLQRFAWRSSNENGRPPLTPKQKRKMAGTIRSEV
Sequence of Cytochrome P450 2D6 (P10635 whole entry): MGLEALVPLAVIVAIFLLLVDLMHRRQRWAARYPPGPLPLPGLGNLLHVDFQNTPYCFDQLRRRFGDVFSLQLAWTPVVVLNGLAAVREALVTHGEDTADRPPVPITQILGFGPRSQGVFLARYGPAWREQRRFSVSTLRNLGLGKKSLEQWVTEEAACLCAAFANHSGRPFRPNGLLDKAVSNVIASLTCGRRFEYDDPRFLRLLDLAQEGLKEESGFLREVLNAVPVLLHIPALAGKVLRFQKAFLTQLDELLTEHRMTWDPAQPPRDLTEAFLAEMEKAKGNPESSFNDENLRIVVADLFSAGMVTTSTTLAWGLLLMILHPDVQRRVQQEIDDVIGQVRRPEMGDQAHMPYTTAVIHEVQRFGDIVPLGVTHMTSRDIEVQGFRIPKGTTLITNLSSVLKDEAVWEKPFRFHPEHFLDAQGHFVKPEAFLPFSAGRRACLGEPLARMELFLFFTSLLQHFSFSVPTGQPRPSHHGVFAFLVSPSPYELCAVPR

SMILES: CCc1ccccc1NC(=O)NNC(=O)c1ccc2ccccc2c1O
- IC50 (Albumin): > 94.1 µM (inactive)

SMILES: O=C(Cn1nc(C(=O)O)c2ccccc2c1=O)c1c[nH]c2ccccc12
- IC50 (H9c2): > 79 µM (inactive)
- IC50 (Beta-galactosidase): > 80 µM (inactive)

SMILES: Nc1c(S(=O)(=O)c2ccccc2)c2nc3ccccc3nc2n1/N=C/c1ccco1
- CC50 [1]: > 40 µM (active)
- IC50 (Beta-galactosidase): > 80 µM (inactive)

SMILES: OC(c1ccccc1)(c1nc(-c2cccc(C(F)(F)F)c2)cs1)C(F)(F)F (stereo unspecified)
- IC50 [2]: > 69.5 µM (inactive)
- IC50 [3]: 11.2 µM (inactive)

SMILES: COc1ccc(-c2cc(C(F)(F)F)nc(NC3CCCC3)n2)cc1OC
- Ki (fMet-Leu-Phe receptor): > 66.7 µM (inactive)
- AC50 (Cytochrome P450 2D6): 20 µM (inconclusive)

SMILES: OC[C@@H]1CN(Cc2cccc(C(F)(F)F)c2)C[C@H](n2cnc3c(NC4CC4)ncnc32)O1
- IC50 (Beta-galactosidase): > 80 µM (inactive)

SMILES: COc1ccc(C(=O)C=CNNC(=O)c2ccc(Cl)cc2)cc1
- IC50 (Albumin): > 94.1 µM (inactive)
- CC50 [4]: 15.6 µM (active)

SMILES: CCOC(=O)C1=C(C)N(Cc2ccccc2)C(=O)NC1c1ccccc1OS(=O)(=O)c1ccccc1[N+](=O)[O-] (stereo unspecified)
- CC50 [5]: 5.56 µM (active)
- IC50 [2]: > 69.5 µM (inactive)
- IC50 [3]: > 69.5 µM (inactive)

SMILES: O=C(Nc1ccccc1)Nc1ccc(S(=O)(=O)N2CCCCC2)cc1
- IC50 [6]: 26.9 µM (inactive)
- IC50 [7]: 47.5 µM (inactive)

SMILES: O=C(CCN1CCC(c2ccccc2)C1)c1ccc2c(c1)OCCO2 (stereo unspecified) [PROROXAN HYDROCHLORIDE]
- EC50 [8]: 36.3 µM (active)
- EC50 [9]: 34.3 µM (active)
- EC50 [10]: 0.21 µM (active)
- EC50 (cells [11]): > 29.9 µM (inactive)
- IC50 (cells [12]): > 29.9 µM (inactive)
- AC50 (HEK293): 76.8 µM (active)
- IC50 [13]: 1.46 µM (active)

SMILES: O=C(NC1CCCC1)c1sc(=S)n2c1[nH]c(=O)c1ccccc12
- Ki (fMet-Leu-Phe receptor): 14.7 µM (active)
- IC50 (Large T antigen): > 100 µM (active)
- IC50 (Aminopeptidase N): 35 µM (active)

SMILES: COCCCN1C(=O)C(O)=C(C(=O)c2ccc3c(c2)CC(C)O3)C1c1cccnc1 (stereo unspecified)
- Ki (fMet-Leu-Phe receptor): > 66.7 µM (inactive)

SMILES: CCc1nc2ccc(C(=O)Nc3cccc(OC)c3)cn2c1N(CC)Cc1cccc(Br)c1
- IC50 [2]: > 69.5 µM (inactive)
- IC50 [3]: > 69.5 µM (inactive)

SMILES: S=C1SCN(CCc2ccccc2)CN1CCc1ccccc1
- EC50 [10]: 2.11 µM (active)
- EC50 (cells [11]): > 29.9 µM (inactive)
- IC50 (cells [12]): > 29.9 µM (inactive)
- IC50 [13]: 3.35 µM (active)

SMILES: O=C(C[C@H]1CC[C@@H]2[C@H](COC[C@@H](O)CN2C(=O)Nc2ccc3c(c2)OCO3)O1)N1CCN(c2ccccc2)CC1
- AC50 [14]: 22.8 µM (active)

SMILES: O=C(Nc1ccc(Cl)cc1)N1CCC(c2ccccc2)C1 (stereo unspecified)
- IC50 (Beta-galactosidase): > 80 µM (inactive)

SMILES: O=C(N/N=C/c1cc([N+](=O)[O-])ccc1O)c1cccc(N2CCCC2=O)c1
- IC50 (Albumin): > 94.1 µM (inactive)
- EC50 [15]: 0.935 µM (active)
- IC50 (Nonstructural protein 1): 6.59 µM (active)
- EC50 (Streptococcus): 1.9 µM (active)

SMILES: O=C1C(NS(=O)(=O)c2ccc(Br)cc2)=C(N2CCN(c3ccccc3)CC2)C(=O)c2ccccc21
- AC50 [16]: > 70 µM (inactive)

SMILES: CCOc1ccc(CCN2C(=S)N([C@@H](Cc3ccc(O)cc3)CN3CCC[C@@H]3CN3C(=S)NC[C@@H]3CC(C)C)C[C@@H]2Cc2ccccc2)cc1
- IC50 [2]: > 69.5 µM (inactive)
- IC50 [3]: > 69.5 µM (inactive)

SMILES: CN(C)c1ccc(/C=N/CC2COc3ccccc3O2)cc1 (stereo unspecified)
- EC50 [10]: 4.25 µM (active)
- EC50 (cells [11]): > 29.9 µM (inactive)
- IC50 (cells [12]): > 29.9 µM (inactive)
- IC50 [13]: 14.3 µM (inactive)

SMILES: NCCc1nc(-c2ccccc2)cs1
- EC50 [10]: 4.72 µM (active)
- EC50 (cells [11]): > 29.9 µM (inactive)
- IC50 (cells [12]): > 29.9 µM (inactive)
- IC50 [13]: > 29.9 µM (inactive)
